Measurements as given in article PMC5146859, “Phase 1/2 study of pacritinib, a next generation JAK2/FLT3 inhibitor, in myelofibrosis or other myeloid malignancies” (Journal of Hematology & Oncology, 2016).

Tested on: patients with advanced myeloid malignancies
Assay: Phase 1 safety: adverse events (NCIC-CTCAE version 3.0)
Type: in vivo, human
Procedure: At screening/baseline, patients underwent a medical history, physical examination, vital sign assessment, ECOG PS assessment, electrocardiogram, and assessment of hematologic parameters and blood chemistry. Hematology/blood chemistry, physical examinations, and vital sign assessments were performed throughout treatment. Toxicity was assessed using the National Cancer Institute Common Terminology Criteria for Adverse Events (NCIC-CTCAE), version 3.0, with relationship to treatment assigned by the investigator and were recorded from the first dose of pacritinib until 30 days after the last dose. Bone marrow biopsy and/or aspirate samples were drawn at baseline, on day 1 of cycle 4 and cycle 10, as clinically indicated, and at the termination visit. Disease response and progression were determined using the relevant International Working Group (IWG) criteria.
The efficacy-evaluable population included those patients with a baseline and corresponding follow-up value. The safety population included all enrolled patients who received ≥1 dose of pacritinib.

## C1=C/COCc2cc(ccc2OCCN2CCCC2)Nc2nccc(n2)-c2cccc(c2)COC/1 [pacritinib, 11-(2-pyrrolidin-1-yl-ethoxy)-14,19-dioxa-5,7,26-triaza-tetracyclo[19.3.1.1(2,6). 1(8,12)]heptacosa-1(25),2(26),3,5,8,10,12(27),16,21,23-decaene]
Phase 1
  Grade 4 gastrointestinal AEs: No grade 4 gastrointestinal AEs occurred
  Relation of fatal AEs to treatment: None of the AEs were considered to be related to treatment
Phase 1, 100 mg, n = 3
  Treatment-emergent AE: Abdominal distension: 0 n (%)
  Treatment-emergent AE: Abdominal pain: 1 (33.3) n (%)
  Treatment-emergent AE: Anemia: 0 n (%)
  Treatment-emergent AE: Any AE: 3 (100.0) n (%)
  Treatment-emergent AE: Asthenia: 2 (66.7) n (%)
  Treatment-emergent AE: Back pain: 1 (33.3) n (%)
  Treatment-emergent AE: Cardiac murmur: 1 (33.3) n (%)
  Treatment-emergent AE: Chills: 0 n (%)
  Treatment-emergent AE: Constipation: 2 (66.7) n (%)
  Treatment-emergent AE: Cough: 1 (33.3) n (%)
  Treatment-emergent AE: Decreased appetite: 2 (66.7) n (%)
  Treatment-emergent AE: Dehydration: 0 n (%)
  Treatment-emergent AE: Diarrhea: 2 (66.7) n (%)
  Treatment-emergent AE: Dizziness: 0 n (%)
  Treatment-emergent AE: Dyspnea: 2 (66.7) n (%)
  Treatment-emergent AE: Edema peripheral: 2 (66.7) n (%)
  Treatment-emergent AE: Epistaxis: 2 (66.7) n (%)
  Treatment-emergent AE: Fatigue: 1 (33.3) n (%)
  Treatment-emergent AE: Hyperbilirubinemia: 1 (33.3) n (%)
  Treatment-emergent AE: Hyperuricemia: 1 (33.3) n (%)
  Treatment-emergent AE: Insomnia: 1 (33.3) n (%)
  Treatment-emergent AE: Nausea: 0 n (%)
  Treatment-emergent AE: Neutropenia: 1 (33.3) n (%)
  Treatment-emergent AE: Night sweats: 1 (33.3) n (%)
  Treatment-emergent AE: Pain in extremity: 3 (100.0) n (%)
  Treatment-emergent AE: Petechiae: 2 (66.7) n (%)
  Treatment-emergent AE: Pyrexia: 1 (33.3) n (%)
  Treatment-emergent AE: Skin lesion: 0 n (%)
  Treatment-emergent AE: Thrombocytopenia: 1 (33.3) n (%)
  Treatment-emergent AE: Upper respiratory tract infection: 0 n (%)
  Treatment-emergent AE: Vomiting: 0 n (%)
Phase 1, 150 mg, n = 6
  Treatment-emergent AE: Abdominal distension: 0 n (%)
  Treatment-emergent AE: Abdominal pain: 1 (16.7) n (%)
  Treatment-emergent AE: Anemia: 1 (16.7) n (%)
  Treatment-emergent AE: Any AE: 6 (100.0) n (%)
  Treatment-emergent AE: Asthenia: 2 (33.3) n (%)
  Treatment-emergent AE: Back pain: 2 (33.3) n (%)
  Treatment-emergent AE: Cardiac murmur: 0 n (%)
  Treatment-emergent AE: Chills: 2 (33.3) n (%)
  Treatment-emergent AE: Constipation: 2 (33.3) n (%)
  Treatment-emergent AE: Cough: 1 (16.7) n (%)
  Treatment-emergent AE: Decreased appetite: 2 (33.3) n (%)
  Treatment-emergent AE: Dehydration: 1 (16.7) n (%)
  Treatment-emergent AE: Diarrhea: 2 (33.3) n (%)
  Treatment-emergent AE: Dizziness: 0 n (%)
  Treatment-emergent AE: Dyspnea: 1 (16.7) n (%)
  Treatment-emergent AE: Edema peripheral: 2 (33.3) n (%)
  Treatment-emergent AE: Epistaxis: 1 (16.7) n (%)
  Treatment-emergent AE: Fatigue: 1 (16.7) n (%)
  Treatment-emergent AE: Hyperbilirubinemia: 1 (16.7) n (%)
  Treatment-emergent AE: Hyperuricemia: 1 (16.7) n (%)
  Treatment-emergent AE: Insomnia: 1 (16.7) n (%)
  Treatment-emergent AE: Nausea: 1 (16.7) n (%)
  Treatment-emergent AE: Neutropenia: 2 (33.3) n (%)
  Treatment-emergent AE: Night sweats: 0 n (%)
  Treatment-emergent AE: Pain in extremity: 0 n (%)
  Treatment-emergent AE: Petechiae: 2 (33.3) n (%)
  Treatment-emergent AE: Pyrexia: 2 (33.3) n (%)
  Treatment-emergent AE: Skin lesion: 4 (66.7) n (%)
  Treatment-emergent AE: Thrombocytopenia: 2 (33.3) n (%)
  Treatment-emergent AE: Upper respiratory tract infection: 2 (33.3) n (%)
  Treatment-emergent AE: Vomiting: 1 (16.7) n (%)
Phase 1, 200 mg, n = 9
  Treatment-emergent AE: Abdominal distension: 2 (22.2) n (%)
  Treatment-emergent AE: Abdominal pain: 1 (11.1) n (%)
  Treatment-emergent AE: Anemia: 1 (11.1) n (%)
  Treatment-emergent AE: Any AE: 9 (100.0) n (%)
  Treatment-emergent AE: Asthenia: 1 (11.1) n (%)
  Treatment-emergent AE: Back pain: 0 n (%)
  Treatment-emergent AE: Cardiac murmur: 1 (11.1) n (%)
  Treatment-emergent AE: Chills: 0 n (%)
  Treatment-emergent AE: Constipation: 2 (22.2) n (%)
  Treatment-emergent AE: Cough: 1 (11.1) n (%)
  Treatment-emergent AE: Decreased appetite: 0 n (%)
  Treatment-emergent AE: Dehydration: 0 n (%)
  Treatment-emergent AE: Diarrhea: 5 (55.6) n (%)
  Treatment-emergent AE: Dizziness: 2 (22.2) n (%)
  Treatment-emergent AE: Dyspnea: 0 n (%)
  Treatment-emergent AE: Edema peripheral: 1 (11.1) n (%)
  Treatment-emergent AE: Epistaxis: 1 (11.1) n (%)
  Treatment-emergent AE: Fatigue: 3 (33.3) n (%)
  Treatment-emergent AE: Hyperbilirubinemia: 1 (11.1) n (%)
  Treatment-emergent AE: Hyperuricemia: 0 n (%)
  Treatment-emergent AE: Insomnia: 2 (22.2) n (%)
  Treatment-emergent AE: Nausea: 2 (22.2) n (%)
  Treatment-emergent AE: Neutropenia: 0 n (%)
  Treatment-emergent AE: Night sweats: 1 (11.1) n (%)
  Treatment-emergent AE: Pain in extremity: 0 n (%)
  Treatment-emergent AE: Petechiae: 0 n (%)
  Treatment-emergent AE: Pyrexia: 2 (22.2) n (%)
  Treatment-emergent AE: Skin lesion: 1 (11.1) n (%)
  Treatment-emergent AE: Thrombocytopenia: 0 n (%)
  Treatment-emergent AE: Upper respiratory tract infection: 2 (22.2) n (%)
  Treatment-emergent AE: Vomiting: 4 (44.4) n (%)
Phase 1, 300 mg, n = 6
  Treatment-emergent AE: Abdominal distension: 1 (16.7) n (%)
  Treatment-emergent AE: Abdominal pain: 1 (16.7) n (%)
  Treatment-emergent AE: Anemia: 1 (16.7) n (%)
  Treatment-emergent AE: Any AE: 6 (100.0) n (%)
  Treatment-emergent AE: Asthenia: 0 n (%)
  Treatment-emergent AE: Back pain: 1 (16.7) n (%)
  Treatment-emergent AE: Cardiac murmur: 0 n (%)
  Treatment-emergent AE: Chills: 0 n (%)
  Treatment-emergent AE: Constipation: 1 (16.7) n (%)
  Treatment-emergent AE: Cough: 1 (16.7) n (%)
  Treatment-emergent AE: Decreased appetite: 0 n (%)
  Treatment-emergent AE: Dehydration: 0 n (%)
  Treatment-emergent AE: Diarrhea: 3 (50.0) n (%)
  Treatment-emergent AE: Dizziness: 1 (16.7) n (%)
  Treatment-emergent AE: Dyspnea: 0 n (%)
  Treatment-emergent AE: Edema peripheral: 0 n (%)
  Treatment-emergent AE: Epistaxis: 2 (33.3) n (%)
  Treatment-emergent AE: Fatigue: 2 (33.3) n (%)
  Treatment-emergent AE: Hyperbilirubinemia: 1 (16.7) n (%)
  Treatment-emergent AE: Hyperuricemia: 0 n (%)
  Treatment-emergent AE: Insomnia: 1 (16.7) n (%)
  Treatment-emergent AE: Nausea: 3 (50.0) n (%)
  Treatment-emergent AE: Neutropenia: 1 (16.7) n (%)
  Treatment-emergent AE: Night sweats: 0 n (%)
  Treatment-emergent AE: Pain in extremity: 1 (16.7) n (%)
  Treatment-emergent AE: Petechiae: 0 n (%)
  Treatment-emergent AE: Pyrexia: 1 (16.7) n (%)
  Treatment-emergent AE: Skin lesion: 0 n (%)
  Treatment-emergent AE: Thrombocytopenia: 1 (16.7) n (%)
  Treatment-emergent AE: Upper respiratory tract infection: 1 (16.7) n (%)
  Treatment-emergent AE: Vomiting: 2 (33.3) n (%)
Phase 1, 400 mg, n = 6
  Treatment-emergent AE: Abdominal distension: 3 (50.0) n (%)
  Treatment-emergent AE: Abdominal pain: 2 (33.3) n (%)
  Treatment-emergent AE: Anemia: 2 (33.3) n (%)
  Treatment-emergent AE: Any AE: 6 (100.0) n (%)
  Treatment-emergent AE: Asthenia: 0 n (%)
  Treatment-emergent AE: Back pain: 2 (33.3) n (%)
  Treatment-emergent AE: Cardiac murmur: 1 (16.7) n (%)
  Treatment-emergent AE: Chills: 1 (16.7) n (%)
  Treatment-emergent AE: Constipation: 2 (33.3) n (%)
  Treatment-emergent AE: Cough: 1 (16.7) n (%)
  Treatment-emergent AE: Decreased appetite: 3 (50.0) n (%)
  Treatment-emergent AE: Dehydration: 2 (33.3) n (%)
  Treatment-emergent AE: Diarrhea: 6 (100.0) n (%)
  Treatment-emergent AE: Dizziness: 1 (16.7) n (%)
  Treatment-emergent AE: Dyspnea: 2 (33.3) n (%)
  Treatment-emergent AE: Edema peripheral: 2 (33.3) n (%)
  Treatment-emergent AE: Epistaxis: 1 (16.7) n (%)
  Treatment-emergent AE: Fatigue: 2 (33.3) n (%)
  Treatment-emergent AE: Hyperbilirubinemia: 1 (16.7) n (%)
  Treatment-emergent AE: Hyperuricemia: 0 n (%)
  Treatment-emergent AE: Insomnia: 1 (16.7) n (%)
  Treatment-emergent AE: Nausea: 4 (66.7) n (%)
  Treatment-emergent AE: Neutropenia: 1 (16.7) n (%)
  Treatment-emergent AE: Night sweats: 2 (33.3) n (%)
  Treatment-emergent AE: Pain in extremity: 0 n (%)
